Molecules are shown by their SMILES. pIC50: −log10 of the molar value. A value given as a limit tells only on which side of the number the result lay.

Experimental findings from patent US20230121952A1 (INFLAZOME LIMITED, priority 2020, published 2023) are described below.

Assay [1] deals with T1, NLRP3 (Homo sapiens, UniProt Q96P20). In words: THP-1 cells pyroptosis assay. The format is cell-based. Further details: Seed THP-1 cells (25,000 cells/well) containing 1.0 μg/ml LPS; host or cells: THP-1 cells, LPS-primed, nigericin-stimulated. The settings on record: 1.0 μg/ml LPS, compound 3 hrs, nigericin 5 μM 1 hr, resazurin readout. On the procedure: THP-1 cells (ATCC #TIB-202) were grown in RPMI containing L-glutamine (Gibco #11835) supplemented with 1 mM sodium pyruvate (Sigma #S8636) and penicillin (100 units/ml)/streptomycin (0.1 mg/ml) (Sigma #P4333) in 10% Fetal Bovine Serum (FBS) (Sigma #F0804). The cells were routinely passaged and grown to confluency (˜10^6 cells/ml). On the day of the experiment, THP-1 cells were harvested and resuspended into RPMI medium (without FBS). The cells were then counted and viability (>90%) checked by Trypan blue (Sigma #T8154). Appropriate dilutions were made to give a concentration of 625,000 cells/ml. To this diluted cell solution was added LPS (Sigma #L4524) to give a […] Final Assay Concentration (FAC). 40 μl of the final preparation was aliquoted into each well of a 96-well plate. The plate thus prepared was used for compound screening.
T1 sequence (Q96P20 whole entry): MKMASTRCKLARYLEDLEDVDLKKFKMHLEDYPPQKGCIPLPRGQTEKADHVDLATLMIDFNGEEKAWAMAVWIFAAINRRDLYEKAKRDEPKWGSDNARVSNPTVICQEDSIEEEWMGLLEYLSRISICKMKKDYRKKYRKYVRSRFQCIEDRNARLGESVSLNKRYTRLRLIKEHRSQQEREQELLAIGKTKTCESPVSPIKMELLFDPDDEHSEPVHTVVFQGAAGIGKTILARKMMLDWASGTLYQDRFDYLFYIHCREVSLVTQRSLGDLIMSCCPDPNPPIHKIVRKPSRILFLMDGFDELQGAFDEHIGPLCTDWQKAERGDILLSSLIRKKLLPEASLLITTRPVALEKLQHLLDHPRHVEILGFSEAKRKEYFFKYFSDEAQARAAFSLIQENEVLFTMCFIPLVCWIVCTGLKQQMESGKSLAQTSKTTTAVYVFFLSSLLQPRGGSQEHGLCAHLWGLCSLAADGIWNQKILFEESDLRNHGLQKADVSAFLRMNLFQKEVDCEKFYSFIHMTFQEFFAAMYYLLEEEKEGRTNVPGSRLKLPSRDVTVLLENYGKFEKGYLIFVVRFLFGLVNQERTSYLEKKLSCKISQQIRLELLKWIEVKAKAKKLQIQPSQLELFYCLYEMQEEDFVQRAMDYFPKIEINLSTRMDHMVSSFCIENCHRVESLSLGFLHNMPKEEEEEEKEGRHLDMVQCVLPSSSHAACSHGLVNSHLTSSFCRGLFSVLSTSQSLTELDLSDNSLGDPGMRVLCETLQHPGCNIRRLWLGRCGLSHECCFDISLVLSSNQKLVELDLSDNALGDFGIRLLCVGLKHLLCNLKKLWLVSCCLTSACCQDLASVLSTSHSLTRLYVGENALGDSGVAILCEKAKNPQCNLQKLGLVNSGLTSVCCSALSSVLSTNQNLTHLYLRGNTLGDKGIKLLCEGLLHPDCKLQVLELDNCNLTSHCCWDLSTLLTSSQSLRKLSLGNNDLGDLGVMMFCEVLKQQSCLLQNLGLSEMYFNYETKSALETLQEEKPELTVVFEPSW
The following method step-by-step assay was followed for compound screening. • 1. Seed THP-1 cells (25,000 cells/well) containing 1.0 μg/ml LPS in 40 μl of RPMI medium (without FBS) in 96-well, black walled, clear bottom cell culture plates coated with poly-D-lysine (VWR #734-0317) • 2. Add 5 μl compound (8 points half-log dilution, with 10 μM top dose) or vehicle (DMSO 0.1% FAC) to the appropriate wells • 3. Incubate for 3 hrs at 37° C., 5% CO2 • 4. Add 5 μl nigericin (Sigma #N7143) (FAC 5 μM) to all wells • 5. Incubate for 1 hr at 37° C., 5% CO2 • 6. At the end of the incubation period, spin plates at 300×g for 3 mins and remove supernatant • 7. Then add 50 μl of resazurin (Sigma #R7017) (FAC 100 μM resazurin in RPMI medium without FBS) and incubate plates for a further 1-2 hrs at 37° C. and 5% CO2 • 8. Plates were read in an Envision reader at Ex 560 nm and Em 590 nm • 9. IC50 data is fitted to a non-linear regression equation (log inhibitor vs response-variable slope 4-parameters) 96-well Plate Map
For orientation: The colour change of resazurin is a common sign of viable cells or microbes.

Assay [2] concerns the target T1, NLRP3. Nature of the assay: Human whole blood IL-1β release assay. Conditions: 1 μg/ml LPS, compound 3 hrs, nigericin 10 μM 1 hr, IL-1β in supernatant (AlphaLisa), read-out: HWB IC50. In kind it is cell-based. Further details: Human whole blood in Li-heparin tubes was obtained from healthy donors; from tissue; host or cells: human whole blood from healthy volunteer donors, LPS-primed, nigericin-stimulated. On the procedure: For systemic delivery, the ability to inhibit NLRP3 when the compounds are present within the bloodstream is of great importance. For this reason, the NLRP3 inhibitory activity of a number of compounds in human whole blood was investigated in accordance with the following protocol.
Human whole blood in Li-heparin tubes was obtained from healthy donors from a volunteer donor panel. • 1. Plate out 80 μl of whole blood containing 1 μg/ml of LPS in 96-well, clear bottom cell culture plate (Corning #3585) • 2. Add 10 μl compound (8 points half-log dilution with 10 μM top dose) or vehicle (DMSO 0.1% FAC) to the appropriate wells • 3. Incubate for 3 hrs at 37° C., 5% CO2 • 4. Add 10 μl nigericin (Sigma #N7143) (10 μM FAC) to all wells • 5. Incubate for 1 hr at 37° C., 5% CO2 • 6. At the end of the incubation period, spin plates at 300×g for 5 mins to pellet cells and remove 20 μl of supernatant and add to 96-well v-bottom plates for IL-1β analysis (note: these plates containing the supernatants can be stored at −80° C. to be analysed at a later date) • 7. IL-1β was measured according to the manufacturer protocol (Perkin Elmer-AlphaLisa IL-1 Kit AL220F-5000) • 8. IC50 data is fitted to a non-linear regression equation (log inhibitor vs response-variable slope 4-parameters)
Background: Bead proximity is the source of the signal in Alpha formats.

For `CN1CCCOc2cc(ccn2)-c2ccc3c(c2Nc2nnc([nH]2)S(=O)(=O)N2CCC1CC2)CCC3` [Example 1, 26-methyl-22-oxa-2λ^6-thia-1,4,5,7,20,26,33-heptazahexacyclo-[25.2.2.1^3,6.1^17,21.0^8,16.0^9,13]tritriaconta-3,6(33),8,13,15,17,19,21(32)-octaene 2,2-dioxide], the pIC50 on NLRP3 [1] and at NLRP3 [2] was at least 5.30 in each case.
For the compound `O=S1(=O)c2nnc([nH]2)Nc2c(ccc3c2CCC3)-c2ccnc(c2)OCCCN2CCC3(C2)CN1C3` [Example 2, 26-oxa-16λ^6-thia-11,13,14,17,22,28,34-heptazaheptacyclo-[25.3.1.1^12,15.1^17,19.1^19,22.0^2,10.0^5,9]tetratriaconta-1(30),2,4,9,12,14,27(31),28-octaene 16,16-dioxide], the pIC50 against NLRP3 [1] and on NLRP3 [2] was at least 7.00 throughout.
Take `O=S1(=O)c2nnc([nH]2)Nc2c(ccc3c2CCC3)-c2ccnc(c2)OCCN2CCC3(C2)CN1C3` [Example 3, 25-oxa-16λ^6-thia-11,13,14,17,22,27,33-heptazaheptacyclo-[24.3.1.1^12,15.1^17,19.1^19,22.0^2,10.0^5,9]tritriaconta-1(29),2,4,9,12,14,26(30),27-octaene 16,16-dioxide]: the pIC50 against NLRP3 [1] was at least 7.00; at NLRP3 [2] it was at least 6.30.
With `CC1(C)COc2cc(ccn2)-c2ccc3c(c2Nc2nnc([nH]2)S(=O)(=O)c2ccn1n2)CCC3` [Example 6, 21,21-dimethyl-23-oxa-16λ^6-thia-11,13,14,20,25,29,30-heptazahexacyclo-[22.3.1.1^12,15.1^17,20.0^2,10.0^5,9]triaconta-1(27),2,4,9,12(30),14,17(29),18,24(28),25-decaene 16,16-dioxide], at NLRP3 [1], the pIC50 is at least 5.30.
Take `CC1(C)CCOc2cc(ccn2)-c2ccc3c(c2Nc2nnc([nH]2)S(=O)(=O)c2ccn1n2)CCC3` [Example 7, 21,21-dimethyl-24-oxa-16λ^6-thia-11,13,14,20,26,30,31-heptazahexacyclo-[23.3.1.1^12,15.1^17,20.0^2,10.0^5,9]hentriaconta-1(28),2,4,9,12,14,17(30),18,25(29),26-decaene 16,16-dioxide]: the pIC50 against NLRP3 [1] is at least 5.00.
The compound `CN1CCCCOc2cc(ccn2)-c2ccc3c(c2Nc2nnc([nH]2)S(=O)(=O)N2CCC1CC2)CCC3` [Example 13, 27-methyl-22-oxa-2λ^6-thia-1,4,5,7,20,27,34-heptaazahexacyclo-[26.2.2.1^3,6.1^17,21.0^8,16.0^9,13]tetratriaconta-3,5,8,13,15,17,19,21(33)-octaene-2,2-dioxide] showed a pIC50 against NLRP3 [1] of at least 6.00.
For the compound `CN1CCOc2cc(ccn2)-c2ccc3c(c2Nc2nnc([nH]2)S(=O)(=O)N2CC[C@H](C1)C2)CCC3` [Example 14, (20R)-22-methyl-25-oxa-16λ^6-thia-11,13,14,17,22,27,32-heptaazahexacyclo[24.3.1.1^12,15.1^17,20.0^2,10.0^5,9]dotriaconta-1(29),2,4,9,12,14,26(30),27-octaene-16,16-dioxide], the pIC50 against NLRP3 [1] is at least 6.30.
As for `O=S1(=O)c2nnc([nH]2)Nc2c(ccc3c2CCC3)-c2ccnc(c2)OCCCN2CCC23CCN1CC3` [Example 15, 8-oxa-28λ^6-thia-4,10,23,25,26,29,34-heptaazaheptacyclo-[27.2.2.1^9,13.1^24,27.0^1,4.0^14,22.0^17,21]pentatriaconta-9(35),10,12,14,16,21,24,26-octaene-28,28-dioxide], on NLRP3 [1], the pIC50 was at least 7.00.
`CN(C)CC12CCCCOc3cc(ccn3)-c3ccc4c(c3Nc3nnc([nH]3)S(=O)(=O)N(C1)C2)CCC4` [Example 16, 19-[(dimethylamino)methyl]-24-oxa-16λ^6-thia-11,13,14,17,26,31-hexaazahexacyclo[23.3.1.1^12,15.1^17,19.0^2,10.0^5,9]hentriaconta-1(28),2,4,9,12,14,25(29),26-octaene-16,16-dioxide]: at NLRP3 [1], the negative-log IC50 (pIC50) was at least 6.00.
At NLRP3 [1], `CN1CCCOc2cc(ccn2)-c2ccc3c(c2Nc2nnc([nH]2)S(=O)(=O)N2CC[C@H]1C2)CCC3` [Example 17, (20S)-21-methyl-25-oxa-16λ^6-thia-11,13,14,17,21,27,32-heptaazahexacyclo[24.3.1.1^12,15.1^17,20.0^2,10.0^0,9]dotriaconta-1(29),2,4,9,12,14,26(30),27-octaene-16,16-dioxide] had a pIC50 of at least 6.30.
As for `O=S1(=O)c2nnc([nH]2)Nc2c(ccc3c2CCC3)-c2ccnc(c2)OCC2CN(C2)C2CCN1CC2` [Example 18, 6-oxa-26λ^6-thia-2,8,21,23,24,27,32-heptaazaheptacyclo-[25.2.2.1^2,4.1^7,11.1^22,25.0^12,20.1^15,19]tetratriaconta-7(33),8,10,12,14,19,22,24-octaene-26,26-dioxide], the pIC50 against NLRP3 [1] was at least 5.30.
Compound `O=S1(=O)c2nnc([nH]2)Nc2c(ccc3c2CCC3)-c2ccnc(c2)OCCCCN2CCC3(C2)CN1C3` [Example 19, 27-oxa-16λ^6-thia-11,13,14,17,22,29,35-heptaazaheptacyclo-[26.3.1.1^12,15.1^17,19.1^19,22.0^2,10.0^5,9]pentatriaconta-1(31),2,4,9,12,14,28(32),29-octaene-16,16-dioxide] showed a pIC50 at NLRP3 [1] of at least 6.30.
On to `O=S1(=O)c2nnc([nH]2)Nc2c(ccc3c2CCC3)-c2ccnc(c2)OCCCN2CCOCC23CCN1CC3` [Example 20], for which the pIC50 against NLRP3 [1] is at least 6.30.
Regarding `CN(C)CC12CCCCOc3cc(ccn3)-c3ccc4c(c3Nc3nnc([nH]3)S(=O)(=O)N(CC1)C2)CCC4` (centres unmarked) [Example 21, 20-[(dimethylamino)methyl]-25-oxa-16λ^6-thia-11,13,14,17,27,32-hexaazahexacyclo[24.3.1.1^12,15.1^17,20.0^2,10.0^5,9]dotriaconta-1(29),2,4,9,12,14,26(30),27-octaene-16,16-dioxide], the pIC50 against NLRP3 [1] was at least 6.00.
`O=S1(=O)c2nnc([nH]2)Nc2c(ccc3c2CCC3)-c2ccnc(c2)OCCCN2C[C@@H]3C[C@H]2CN31` [Example 22, (19S,21S)-27-oxa-16λ^6-thia-11,13,14,17,23,29,33-heptaazaheptacyclo-[26.3.1.1^12,15.0^2,10.0^5,9.0^17,21.0^19,23]tritriaconta-1(31),2,4,9,12,14,28(32),29-octaene-16,16-dioxide]: the pIC50 against NLRP3 [1] was at least 5.30.
Take `O=S1(=O)c2nnc([nH]2)Oc2c(ccc3c2CCC3)-c2ccnc(c2)OCCCN2CCC3(C2)CN1C3` [Example 23, 11,26-dioxa-16λ^6-thia-13,14,17,22,28,34-hexaazaheptacyclo-[25.3.1.1^12,15.1^17,19.1^19,22.0^2,10.0^5,9]tetratriaconta-1(30),2,4,9,12,14,27(31),28-octaene-16,16-dioxide]: the pIC50 on NLRP3 [1] is at least 5.30.
Same read-out and setting: next, `CC(C)c1cc(F)cc2c1Nc1nnc([nH]1)S(=O)(=O)N1CC3(CCN(CCCOc4cc-2ccn4)C3)C1` [Example 24, 4-fluoro-6-(propan-2-yl)-23-oxa-13λ^6-thia-8,10,11,14,19,25,31-heptaazahexacyclo[22.3.1.1^9,12.1^14,16.1^16,19.0^2,7]hentriaconta-1(27),2(7),3,5,9,11,24(28),25-octaene-13,13-dioxide]: at least 7.00.

By pIC50 is commonly meant the IC50 on a negative log10 scale, so that one unit is a factor of ten.
